In article PMC12062363, “Phytochemical analysis and neuroprotective potential of Achillea santolina L. fractions” (Scientific Reports, 2025):

How the values were obtained:
COX-2 enzyme = molecular target: T1, COX-2 enzyme (Homo sapiens, UniProt P35354); experiment: biochemical; assay type: biochemical; conditions: three replicates
T1 sequence (P35354 18-604): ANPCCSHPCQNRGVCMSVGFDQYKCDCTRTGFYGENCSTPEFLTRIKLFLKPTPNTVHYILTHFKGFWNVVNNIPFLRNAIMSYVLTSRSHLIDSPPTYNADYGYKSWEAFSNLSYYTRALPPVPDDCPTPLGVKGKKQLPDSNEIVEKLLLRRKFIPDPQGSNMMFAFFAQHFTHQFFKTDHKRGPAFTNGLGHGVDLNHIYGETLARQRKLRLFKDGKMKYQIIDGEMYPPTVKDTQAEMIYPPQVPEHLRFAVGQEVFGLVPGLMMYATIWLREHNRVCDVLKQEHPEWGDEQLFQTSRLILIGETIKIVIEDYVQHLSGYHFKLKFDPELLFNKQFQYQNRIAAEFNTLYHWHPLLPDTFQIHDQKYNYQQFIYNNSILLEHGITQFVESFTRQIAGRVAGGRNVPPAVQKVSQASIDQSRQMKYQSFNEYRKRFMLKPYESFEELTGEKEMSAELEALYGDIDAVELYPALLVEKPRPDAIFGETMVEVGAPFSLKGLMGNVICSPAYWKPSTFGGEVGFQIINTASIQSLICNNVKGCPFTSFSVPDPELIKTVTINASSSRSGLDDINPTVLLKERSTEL
Procedure: All in vitro determinations were performed in triplicate and reported as mean ± standard deviation. The IC50 values were determined by transforming the concentrations to logarithmic form and applying a non-linear regression equation for inhibitors (log inhibitor) versus the normalized response-variable slope equation. In vitro studies were analyzed using one-way ANOVA and Tukey’s test, with p values under < 0.05 regarded as significant. […] All figures and statistical analyses were generated with GraphPad Prism version 8.0® for Windows (GraphPad Software, San Diego, California USA).
The inhibitory activity of the tested samples against COX-2 enzyme was determined colorimetrically ^6. Celecoxib was used as a reference drug.

5-LOX = molecular target: T2, 5-LOX (Homo sapiens, UniProt P09917); experiment: In vitro lipoxygenase (5-LOX) inhibitory activity; assay type: biochemical; conditions: three replicates
T2 sequence (P09917 1-674): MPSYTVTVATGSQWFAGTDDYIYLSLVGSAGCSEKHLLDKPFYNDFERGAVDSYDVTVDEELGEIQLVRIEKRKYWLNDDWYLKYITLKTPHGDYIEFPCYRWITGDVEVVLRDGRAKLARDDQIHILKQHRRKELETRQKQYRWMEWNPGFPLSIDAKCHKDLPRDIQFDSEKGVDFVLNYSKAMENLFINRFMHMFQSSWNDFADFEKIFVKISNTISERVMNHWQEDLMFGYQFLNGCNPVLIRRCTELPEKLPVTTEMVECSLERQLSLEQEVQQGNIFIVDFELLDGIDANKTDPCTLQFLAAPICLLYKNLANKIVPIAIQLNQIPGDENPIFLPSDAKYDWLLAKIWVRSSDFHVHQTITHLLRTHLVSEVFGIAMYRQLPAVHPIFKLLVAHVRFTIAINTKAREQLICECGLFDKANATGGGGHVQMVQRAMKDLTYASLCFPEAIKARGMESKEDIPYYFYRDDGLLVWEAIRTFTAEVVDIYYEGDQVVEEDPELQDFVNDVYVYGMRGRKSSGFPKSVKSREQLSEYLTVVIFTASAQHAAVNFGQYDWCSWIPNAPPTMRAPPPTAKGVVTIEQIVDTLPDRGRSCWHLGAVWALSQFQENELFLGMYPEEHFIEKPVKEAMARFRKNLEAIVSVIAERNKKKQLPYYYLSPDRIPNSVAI
Procedure: All in vitro determinations were performed in triplicate and reported as mean ± standard deviation. The IC50 values were determined by transforming the concentrations to logarithmic form and applying a non-linear regression equation for inhibitors (log inhibitor) versus the normalized response-variable slope equation. […] All figures and statistical analyses were generated with GraphPad Prism version 8.0® for Windows (GraphPad Software, San Diego, California USA).
The 5-LOX inhibitory activity was determined according to a previous method ^7. […] The IC50 of each tested sample was calculated.

[1] = system: cerebral cortex and hippocampus of MSG-treated rats; experiment: Brain histopathology (H&E) in MSG-induced neurotoxicity in rats; assay type: in vivo, Wistar rats; conditions: standard 30 mg/kg orally, 14 days
Procedure: One day post the last dose, rats were anesthetized using ketamine 90 mg i.p and Blood was drawn from the Orbital sinus[22] followed by euthanizing of all rats[22]. […] The whole brains were expunged, washed with cold saline, wiped with filter paper, and split into two portions(hemispheres): one hemisphere was used for histopathological examinations following formalin fixation, however the other hemisphere was snap-frozen in liquid nitrogen and kept at − 80 °C to be used for biochemical assessment (MDA, GSH and TNF-α) and for RNA extraction. Samples were assayed in triplicates[2].
Brain specimens were preserved in 10% neutral buffered formalin followed by processing in increasing concentrations of ethanol and xylene. […]

[2] = system: Tumor necrosis factor alpha; experiment: TNF-α immunohistochemistry in cerebral cortex, MSG-induced neurotoxicity in rats; assay type: in vivo, Wistar rats; conditions: standard 30 mg/kg orally, 14 days
Procedure: Sixty-three rats were randomly allocated into nine experimental groups (n = 7): Control Group; served as negative control that received distilled water (DW) at the volume of 1 ml/rat orally via an intragastric tube once a day for 14 days. MSG Group, served as control positive where rats received DW at the volume of 0.5 mL/rats orally + 2 g/kg weight MSG dissolved in normal saline at the volume of 0.5 mL/rats orally via an intragastric tube once a day for 14 days[21]. Treated groups received MSG same way as MSG group along with various treatments as following: AS 200, 400 Groups; received Achillea santolina methanolic extract at doses of 200, 400 mg/kg, respectively. MF 200,400; received methylene chloride fraction of Achillea santolina extract with the same two doses and volume suspended in DW, BF 200, 400 received butanol fraction of Achillea santolina extract with the same two doses and volume suspended in DW, and standard group (Std): received Dextromethorphan 30 mg/kg at the volume of 0.5 mL/rats orally.
Tumor necrosis factor alpha was detected in paraffin embedded tissue by immunoperoxidase technique. Briefly, tissue sections were deparaffinized and then incubated in citrate buffer PH 6 for antigen retrieval. […] Area percent of positive staining was measured by Image J software in 3 sections/ group at 200X magnification.

O=c1cc(-c2ccc(O)c(O)c2)oc2cc(O)cc(O)c12 [Luteolin]
IC50 (COX-2 enzyme; read-out: COX-2 inhibitory activity IC50): 12.04 ± 0.08 µM

O=c1cc(-c2ccc(O)cc2)oc2cc(O)c([C@@H]3O[C@H](CO)[C@@H](O)[C@H](O)[C@H]3O)c(O)c12 [Isovitexin, Apigenin 6-C-β-glucopyranoside]
5-LOX inhibitory potential IC50 (5-LOX): highest inhibitory potential
COX-2 inhibitory activity IC50 (COX-2 enzyme): most powerful

COc1ccc2c(c1)[C@]13CCCC[C@@H]1[C@H](C2)N(C)CC3 [dextromethorphan, Dextromethorphan]
neuronal degeneration and gliosis, cerebral cortex [1]: mild
neuronal degeneration and gliosis, hippocampus [1]: mild
TNF-α expression in cerebral cortex (immunohistochemistry) [2]: weak

O=c1c(O[C@@H]2O[C@H](CO)[C@@H](O)[C@H](O)[C@H]2O)c(-c2ccc(O)cc2)oc2cc(O)cc(O)c12 [Kaempferol-3-O-glucoside, Kaempferol 3-O-β-glucopyranoside]
IC50 (5-LOX; read-out: 5-LOX inhibitory potential IC50): 6.28 ± 0.16 µM
